Laboratory results: paper PMC11191600 (ACS chemical neuroscience, 2024)
Values after ≈ are worked out from the molar mass of the structure shown. Like-named read-outs stand apart in the source and are kept apart here.

Assays:
[1] = target: human dopamine D2S receptor (Homo sapiens, UniProt P14416); assay: Human dopamine D2S receptor radioligand binding assay (Eurofins); conditions: for % Inhibition at 10 μM D2S: [3H]Spiperone binding, Eurofins Discovery
[2] = target: human dopamine D1 receptor (Homo sapiens, UniProt P21728); assay: Human dopamine D1 receptor radioligand binding assay (Eurofins); conditions: for % Inhibition at 10 μM D1: [3H]SCH-23390 binding, Eurofins Discovery
[3] = target: T1, human dopamine D4.4 receptor (Homo sapiens, UniProt P21917); assay: Human dopamine D4.4 receptor radioligand binding assay (Eurofins); set-up: % Inhibition at D4.4: dose or concentration left out as unconfirmed; conditions: for % Inhibition at 10 μM D4.4: [3H]Spiperone binding; for inhibition at 10 µM: read-out: % Inhibition at 10 μM D4.4
T1 sequence (P21917 1-419): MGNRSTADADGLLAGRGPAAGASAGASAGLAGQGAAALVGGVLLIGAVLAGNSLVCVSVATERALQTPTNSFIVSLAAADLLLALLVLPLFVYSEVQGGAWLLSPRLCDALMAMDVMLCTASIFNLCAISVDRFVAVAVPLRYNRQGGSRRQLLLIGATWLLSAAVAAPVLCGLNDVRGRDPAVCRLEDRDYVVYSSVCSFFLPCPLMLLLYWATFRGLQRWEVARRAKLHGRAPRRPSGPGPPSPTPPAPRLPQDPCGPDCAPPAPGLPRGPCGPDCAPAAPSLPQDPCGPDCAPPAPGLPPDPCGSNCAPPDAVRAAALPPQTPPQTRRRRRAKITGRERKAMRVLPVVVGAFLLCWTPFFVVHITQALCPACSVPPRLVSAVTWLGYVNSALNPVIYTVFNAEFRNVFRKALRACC

[4] = target: human dopamine D3 receptor (Homo sapiens, UniProt P35462); assay: Human dopamine D3 receptor radioligand binding assay (Eurofins); conditions: for % Inhibition at 10 μM D3: [3H]Spiperone binding, Eurofins Discovery
[5] = target: Human recombinant dopamine D2L receptor (Homo sapiens, UniProt P14416); assay: Human dopamine D2L receptor radioligand binding assay (Eurofins); conditions: for % Inhibition at 10 μM D2L: [3H]Spiperone binding, Eurofins Discovery
[6] = Kinetic solubility (shake flask, McIlvaine buffer); type: physicochemical; conditions: for Solubility pH = 2.2 / Solubility pH = 6.8: kinetic, 100 µM, 18 hours room temperature; for Solubility pH = 2.2: McIlvaine buffer pH 2.2; for Solubility pH = 6.8: McIlvaine buffer pH 6.8; for solubility at 18 h: McIlvaine buffer, kinetic from dmso stock
[7] = Plasma protein binding, equilibrium dialysis, human plasma; type: in vitro ADME
[8] = Plasma protein binding, equilibrium dialysis, rat plasma; type: in vitro ADME
[9] = Microsomal stability, rat hepatic microsomes; type: in vitro ADME; conditions: predicted hepatic clearance
[10] = In vivo pharmacokinetics, intravenous cassette dosing in rats; set-up: species or system male Sprague-Dawley rats; conditions: rat
[11] = Microsomal stability, human hepatic microsomes; type: in vitro ADME; conditions: predicted hepatic clearance
[12] = read-out: D4.4 IC50, Eurofins Discovery
[13] = read-out: D4.4 Ki, Eurofins Discovery
[14] = intravenous 0.2 mg/kg, cassette

human dopamine D3 receptor, sequence (P35462 whole entry): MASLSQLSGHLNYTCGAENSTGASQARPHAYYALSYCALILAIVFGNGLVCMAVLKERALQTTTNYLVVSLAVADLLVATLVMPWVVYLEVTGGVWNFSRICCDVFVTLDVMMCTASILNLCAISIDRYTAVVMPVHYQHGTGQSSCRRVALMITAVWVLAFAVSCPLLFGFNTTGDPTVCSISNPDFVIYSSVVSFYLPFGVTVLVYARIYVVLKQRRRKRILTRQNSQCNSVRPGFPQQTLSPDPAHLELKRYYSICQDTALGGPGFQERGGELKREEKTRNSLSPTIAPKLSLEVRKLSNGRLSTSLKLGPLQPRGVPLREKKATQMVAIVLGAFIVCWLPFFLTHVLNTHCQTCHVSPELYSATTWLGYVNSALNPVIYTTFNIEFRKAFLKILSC
Human recombinant dopamine D2L receptor, sequence (P14416 whole entry): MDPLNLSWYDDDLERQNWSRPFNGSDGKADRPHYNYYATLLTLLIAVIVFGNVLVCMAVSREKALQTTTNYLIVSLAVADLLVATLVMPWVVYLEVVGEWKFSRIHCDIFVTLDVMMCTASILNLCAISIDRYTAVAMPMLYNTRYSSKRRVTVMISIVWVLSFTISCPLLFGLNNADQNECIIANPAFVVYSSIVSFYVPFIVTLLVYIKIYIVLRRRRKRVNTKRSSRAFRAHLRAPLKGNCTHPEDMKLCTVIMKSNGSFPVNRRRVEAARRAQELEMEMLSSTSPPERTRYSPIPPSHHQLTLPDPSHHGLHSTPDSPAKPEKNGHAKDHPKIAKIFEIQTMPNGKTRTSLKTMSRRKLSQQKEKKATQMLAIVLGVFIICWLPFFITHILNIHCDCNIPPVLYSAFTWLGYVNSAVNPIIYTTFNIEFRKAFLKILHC
human dopamine D2S receptor, sequence (P14416 1-414 isoform P14416-2): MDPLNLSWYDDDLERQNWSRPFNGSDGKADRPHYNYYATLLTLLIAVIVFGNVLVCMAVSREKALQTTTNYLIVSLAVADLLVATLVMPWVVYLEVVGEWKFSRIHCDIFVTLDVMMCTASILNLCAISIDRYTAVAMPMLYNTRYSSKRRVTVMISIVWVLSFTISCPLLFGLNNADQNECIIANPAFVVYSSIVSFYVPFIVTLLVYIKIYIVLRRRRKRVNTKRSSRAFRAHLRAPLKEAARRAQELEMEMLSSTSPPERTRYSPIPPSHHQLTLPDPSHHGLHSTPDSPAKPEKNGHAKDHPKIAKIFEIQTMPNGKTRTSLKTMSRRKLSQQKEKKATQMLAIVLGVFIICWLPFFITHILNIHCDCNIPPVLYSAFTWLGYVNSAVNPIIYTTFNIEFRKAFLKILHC
human dopamine D1 receptor, sequence (P21728 whole entry): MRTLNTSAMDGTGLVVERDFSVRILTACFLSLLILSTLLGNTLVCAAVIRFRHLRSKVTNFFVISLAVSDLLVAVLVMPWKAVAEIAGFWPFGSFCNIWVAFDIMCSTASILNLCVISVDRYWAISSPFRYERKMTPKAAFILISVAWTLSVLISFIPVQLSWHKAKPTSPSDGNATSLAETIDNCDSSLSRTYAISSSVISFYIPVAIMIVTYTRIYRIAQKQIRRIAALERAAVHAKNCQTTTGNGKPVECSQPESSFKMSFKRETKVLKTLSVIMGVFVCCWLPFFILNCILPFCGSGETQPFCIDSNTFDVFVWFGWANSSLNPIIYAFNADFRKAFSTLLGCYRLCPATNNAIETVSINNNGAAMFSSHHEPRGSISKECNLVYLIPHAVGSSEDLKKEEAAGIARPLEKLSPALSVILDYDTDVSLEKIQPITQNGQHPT

Cc1ccc(C(=O)N2CC3(CCN(Cc4ccc(Cl)c(Cl)c4)CC3)C2)cc1C [Compound 9]
% Inhibition at 10 μM D2S [1]: 25%
% Inhibition at 10 μM D1 [2]: 24%
% Inhibition at 10 μM D4.4 ([3]; Eurofins Discovery): 91%
IC50 [3, 12]: 81 nM
Ki [3, 13]: 22 nM
% Inhibition at 10 μM D3 [4]: 62%
% Inhibition at 10 μM D2L [5]: 24%
Solubility pH = 2.2 [6]: 84.2 µM
Solubility pH = 6.8 [6]: 31.6 µM

Cc1ccc(C(=O)N2CC3(CCN(Cc4c[nH]c5cc(F)ccc45)CC3C)C2)cc1C (stereo not drawn) [Compound 13]
% Inhibition at 10 μM D4.4 ([3]; Eurofins Discovery): 85%
IC50 [3, 12]: 990 nM
Ki [3, 13]: 270 nM
Solubility pH = 2.2 [6]: 90.5 µM
Solubility pH = 6.8 [6]: 88.2 µM

O=C(c1cc(Cl)cc(Cl)c1)N1CC2(CCN(Cc3c[nH]c4cc(F)ccc34)CC2)C1 [Compound 28]
% Inhibition at 10 μM D4.4 ([3]; Eurofins Discovery): 49%

Cc1ccc(C(=O)N2CC3(CCN(Cc4ccc(F)c(F)c4)CC3)C2)cc1C [Compound 4]
fu,plasma human (fraction unbound) [7]: 0.01
% Inhibition at 10 μM D2S [1]: 8%
% Inhibition at 10 μM D1 [2]: 21%
fu,plasma rat (fraction unbound) [8]: 0.03
% Inhibition at 10 μM D4.4 ([3]; Eurofins Discovery): 88%
IC50 [3, 12]: 2790 nM
Ki [3, 13]: 250 nM
% Inhibition at 10 μM D3 [4]: 9%
% Inhibition at 10 μM D2L [5]: 9%
CLH rat (hepatic clearance) [9]: 59.1 mL/min/kg
Solubility pH = 2.2 [6]: 95.3 µM
Solubility pH = 6.8 [6]: 88.9 µM
AUC (area under the curve) [10, 14]: 28.7 ng·h/mL
CLp (plasma clearance) [10, 14]: 116 mL/min/kg
Vss (volume of distribution at steady-state) [10, 14]: 5.52 L/kg
t1/2 (terminal phase plasma half-life) [10, 14]: 1.05 h
in vivo clearance relative to hepatic blood flow (superhepatic clearance) ([10]; intravenous dosing): > 100 % Qh
CLH human (hepatic clearance) [11]: 16.9 mL/min/kg

Cc1ccc(C(=O)N2CC3(CCN(Cc4c[nH]c5cc(F)ccc45)CC3)C2)cc1C [Compound 5]
% Inhibition at 10 μM D2S [1]: 25%
% Inhibition at 10 μM D1 [2]: 35%
% Inhibition at 10 μM D4.4 ([3]; Eurofins Discovery): 94%
IC50 [3, 12]: 200 nM
Ki [3, 13]: 56 nM
% Inhibition at 10 μM D3 [4]: 27%
% Inhibition at 10 μM D2L [5]: 24%
Solubility pH = 2.2 [6]: 83.4 µM
Solubility pH = 6.8 [6]: 87.0 µM

COc1ncc(CN2CCC3(CC2)CN(C(=O)c2ccc(C)c(C)c2)C3)cc1F [Compound 10]
inhibition at 10 µM [3]: 66%

Cc1ccc(C(=O)N2CC3(CCN(Cc4c[nH]c5cc(F)ccc45)C(C)C3)C2)cc1C (stereo not drawn) [Compound 14]
% Inhibition at 10 μM D4.4 ([3]; Eurofins Discovery): 89%
IC50 [3, 12]: 1920 nM
Ki [3, 13]: 530 nM

O=C(c1ccc(Cl)cc1Cl)N1CC2(CCN(Cc3c[nH]c4cc(F)ccc34)CC2)C1 [Compound 19]
% Inhibition at 10 μM D2S [1]: 14%
% Inhibition at 10 μM D1 [2]: 21%
% Inhibition at 10 μM D4.4 ([3]; Eurofins Discovery): 92%
IC50 [3, 12]: 82 nM
Ki [3, 13]: 23 nM
% Inhibition at 10 μM D3 [4]: 30%
% Inhibition at 10 μM D2L [5]: 23%

Cc1ccc(C(=O)N2CC3(CCN(Cc4c[nH]c5cc(F)ccc45)CC3)C2)cc1 [Compound 29]
fu,plasma human (fraction unbound) [7]: 0.05
% Inhibition at 10 μM D2S [1]: 5%
% Inhibition at 10 μM D1 [2]: 27%
fu,plasma rat (fraction unbound) [8]: 0.15
% Inhibition at 10 μM D4.4 ([3]; Eurofins Discovery): 99%
IC50 [3, 12]: 62 nM
Ki [3, 13]: 17 nM
% Inhibition at 10 μM D3 [4]: 13%
% Inhibition at 10 μM D2L [5]: 20%
CLH rat (hepatic clearance) [9]: 49.2 mL/min/kg
Solubility pH = 2.2 [6]: 91.9 µM
Solubility pH = 6.8 [6]: 85.3 µM
CLH human (hepatic clearance) [11]: 17.3 mL/min/kg

Cc1ccc(S(=O)(=O)N2CC3(CCN(Cc4c[nH]c5cc(F)ccc45)CC3)C2)cc1 [Compound 34]
% Inhibition at 10 μM D2S [1]: 17%
% Inhibition at 10 μM D1 [2]: 47%
% Inhibition at 10 μM D4.4 ([3]; Eurofins Discovery): 94%
IC50 [3, 12]: 120 nM
Ki [3, 13]: 33 nM
% Inhibition at 10 μM D3 [4]: 49%
% Inhibition at 10 μM D2L [5]: 50%

Cc1cccc(C(=O)N2CC3(CCN(Cc4c[nH]c5cc(F)ccc45)CC3)C2)c1 [Compound 32]
fu,plasma human (fraction unbound) [7]: 0.06
% Inhibition at 10 μM D2S [1]: 18%
% Inhibition at 10 μM D1 [2]: 10%
fu,plasma rat (fraction unbound) [8]: 0.14
% Inhibition at 10 μM D4.4 ([3]; Eurofins Discovery): 92%
IC50 [3, 12]: 490 nM
Ki [3, 13]: 140 nM
% Inhibition at 10 μM D3 [4]: 12%
% Inhibition at 10 μM D2L [5]: 18%
CLH rat (hepatic clearance) [9]: 46.2 mL/min/kg
Solubility pH = 2.2 [6]: 91.2 µM
Solubility pH = 6.8 [6]: 87.0 µM
CLH human (hepatic clearance) [11]: 14.7 mL/min/kg

Cc1ccc(C(=O)N2CC3(CCN(Cc4n[nH]c5cc(F)ccc45)CC3)C2)cc1C [Compound 6]
% Inhibition at 10 μM D2S [1]: 15%
% Inhibition at 10 μM D1 [2]: −4%
% Inhibition at 10 μM D4.4 ([3]; Eurofins Discovery): 90%
IC50 [3, 12]: 150 nM
Ki [3, 13]: 43 nM
% Inhibition at 10 μM D3 [4]: 25%
% Inhibition at 10 μM D2L [5]: 3%
Solubility pH = 2.2 [6]: 89.4 µM
Solubility pH = 6.8 [6]: 83.1 µM

Cc1ccc(C(=O)N2CC3(CCN(Cc4cn(C)c5ccccc45)CC3)C2)cc1C [Compound 12]
inhibition at 10 µM ([1]; read-out: % Inhibition at 10 μM D2S): 24%
inhibition at 10 µM ([2]; read-out: % Inhibition at 10 μM D1): 27%
IC50 [3]: 280 nM
Ki [3]: 76 nM
inhibition at 10 µM [3]: 92%
inhibition at 10 µM ([4]; read-out: % Inhibition at 10 μM D3): 19%
inhibition at 10 µM ([5]; read-out: % Inhibition at 10 μM D2L): 16%
solubility at 18 h ([6]; pH 2.2, aqueous buffer): 88.3 µM (≈ 35.5 µg/mL)
solubility at 18 h ([6]; pH 6.8, aqueous buffer): 87.4 µM (≈ 35.1 µg/mL)

Cc1ccc(C(=O)N2CCC3(CCN(Cc4c[nH]c5cc(F)ccc45)CC3)C2)cc1C [Compound 42, (3,4-dimethylphenyl)(8-[(6-fluoro-1H-indol-3-yl)methyl)-2,8-diazaspiro[4.5]decan-2-yl)methanone]
% Inhibition at D4.4 ([3]; screened at Eurofins): 44%
